Columns and labels:
Phytophthora infestans = test: whole plant or invertebrate; type: in vivo; details: in Solanum lycopersicum, foliar, read-out: control of Phytophthora infestans
Pyrenophora teres = test: Pyrenophora teres/Barley/Leaf Disc Preventative (Net Blotch); type: in vivo; details: foliar, 200 ppm, barley leaf disc preventative, compared to untreated control, read-out: control of Pyrenophora teres
From the text: Barley leaf segments cv. Hasso are placed on agar in a multiwell plate (24-well format) and sprayed with the formulated test compound diluted in water. The leaf segments are inoculated with a spore suspension of the fungus 2 days after application. […] The data are presented as the percentage of disease control of each compound for the biological tests against G. lagenarium (Example B3), P. recondita preventative (Example B13), P. teres (Example B15) and M. graminicola (Example B19) as described above. The testing rates of each biological test is specifically described in table C1 below.

[1] = tested on: Monographella nivalis (Microdochium nivale); test: Monographella nivalis (Microdochium nivale)/Liquid Culture (Foot Rot Cereals); type: cell-based; details: liquid culture, compared to untreated control
In short: (§1)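 First, the test compound in DMSO is placed in the wells. Next, potato dextrose broth seeded with conidia taken straight from cryogenic storage is added, and the culture is left to grow.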

[2] = tested on: Magnaporthe grisea (Pyricularia oryzae); test: whole plant or invertebrate; type: in vivo; details: foliar, read-out: control of Magnaporthe grisea
[3] = tested on: Glomerella lagenarium (Colletotrichum lagenarium); test: Glomerella lagenarium (Colletotrichum lagenarium)/Liquid Culture (Anthracnose); type: cell-based; details: Colletotrichum orbiculare, liquid culture, compared to untreated control
[4] = tested on: Phaeosphaeria nodorum (Septoria nodorum); test: Phaeosphaeria nodorum (Septoria nodorum)/Wheat/Leaf Disc Preventative (Glume Blotch); type: in vivo; details: Parastagonospora nodorum, foliar, wheat leaf disc preventative, compared to untreated control
In short: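 Wheat cv. Kanzler leaf discs on agar were sprayed with formulated compound diluted in water and inoculated with P. nodorum spores 2 days later. Discs kept at 20 °C, 75% rh, 12 h light/dark; percent disease control versus untreated scored 5–7 days after application.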

Plasmopara viticola = test: whole plant or invertebrate; type: in vivo; details: foliar, read-out: control of Plasmopara viticola
[5] = tested on: Mycosphaerella arachidis (Cercospora arachidicola); test: Mycosphaerella arachidis (Cercospora arachidicola)/Liquid Culture (Early Leaf Spot); type: cell-based; details: liquid culture, compared to untreated control
In short: as §1

Alternaria solani = test: Alternaria solani/Tomato/Leaf Disc (Early Blight); type: in vivo; details: foliar, tomato leaf disc, compared to untreated control
Method: Tomato leaf disks cv. Baby are placed on agar in multiwell plates (24-well format) and sprayed with the formulated test compound diluted in water. The leaf disks are inoculated with a spore suspension of the fungus 2 days after application. The inoculated leaf disks are incubated at 23° C./21° C. (day/night) and 80% rh (relative humidity) under a light regime of 12/12 h (light/dark) in a climate cabinet and the activity of a compound is assessed as percent disease control compared to untreated when an appropriate level of disease damage appears on untreated check disk leaf disks (5-7 days after application).

[6] = tested on: Blumeria graminis f. sp. tritici (Erysiphe graminis f. sp. tritici); test: Blumeria graminis f. sp. tritici/Wheat/Leaf Disc Preventative (Powdery Mildew on Wheat); type: in vivo; details: foliar, wheat leaf disc preventative, compared to untreated control
In short: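 Wheat cv. Kanzler leaf segments on agar sprayed with formulated compound, inoculated with powdery mildew 1 day later and held at 20° C, 60% rh (24 h dark, then 12 h light/12 h dark). Percent disease control versus untreated scored 6-8 days after application.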

[7] = tested on: Mycosphaerella graminicola (Septoria tritici); test: Mycosphaerella graminicola (Septoria tritici)/Liquid Culture (Septoria Blotch); type: cell-based; details: Zymoseptoria tritici; 20 ppm; liquid culture; compared to untreated control
In short: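 Conidia from cryogenic storage mixed into potato dextrose broth and added to microtiter wells already holding DMSO solutions of test compound. Activity expressed as percentage disease control.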

[8] = tested on: Botryotinia fuckeliana (Botrytis cinerea); test: Botryotinia fuckeliana (Botrytis cinerea)/Liquid Culture (Gray Mould); type: cell-based; details: liquid culture, compared to untreated control
Method: Conidia of the fungus from cryogenic storage are directly mixed into nutrient broth (Vogels broth). After placing a (DMSO) solution of test compound into a microtiter plate (96-well format), the nutrient broth containing the fungal spores is added.

[9] = tested on: Puccinia recondita f. sp. tritici; test: Puccinia recondita f. sp. tritici/Wheat/Leaf Disc Preventative (Brown Rust); type: in vivo; details: foliar, 200 ppm, wheat leaf disc preventative, compared to untreated control, read-out: control of Puccinia recondita f. sp. tritici
Phakopsora pachyrhizi = test: Phakopsora pachyrhizi/Soybean/Preventative (Soybean Rust); type: in vivo; details: foliar, 288 h, 200 ppm, soybean leaf disc preventative, compared to untreated control, read-out: control of Phakopsora pachyrhizi
[10] = tested on: Puccinia recondita f. sp. tritici; test: Puccinia recondita f. sp. tritici/Wheat/Leaf Disc Curative (Brown Rust); type: in vivo; details: foliar, wheat leaf disc curative, compared to untreated control
In short: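 Curative leaf-disc test on wheat cv. Kanzler segments on agar, spore-inoculated and kept dark at 19° C, 75% rh; formulated compound in water applied 1 day after inoculation. Incubated at 19° C, 75% rh, 12 h light/12 h dark; percent disease control versus untreated scored 6-8 days after application.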

Row | Structure (SMILES) | pest or weed control at 200 ppm (Phytophthora infestans) | pest or weed control at 200 ppm (Pyrenophora teres) | inhibition of growth at 20 ppm [1] | pest or weed control at 200 ppm [2] | inhibition of growth at 20 ppm [3] | pest or weed control at 200 ppm [4] | pest or weed control at 200 ppm (Plasmopara viticola) | inhibition of growth at 20 ppm [5] | pest or weed control at 200 ppm (Alternaria solani) | pest or weed control at 200 ppm [6] | inhibition of growth at 20 ppm [7] | inhibition of growth at 20 ppm [8] | pest or weed control at 200 ppm [9] | pest or weed control at 200 ppm (Phakopsora pachyrhizi) | melting point | pest or weed control at 200 ppm [10]
1 | CO/C=C(\Oc1cc(-n2ncc(C(C)C)n2)ccc1C)C(=O)OC [Compound F-4, methyl (Z)-2-[5-(4-isopropyltriazol-2-yl)-2-methyl-phenoxy]-3-methoxy-prop-2-enoate] | ≥ 80% | ≥ 80% | ≥ 80% | ≥ 80% | ≥ 80% | ≥ 80% | ≥ 80% | ≥ 80% | ≥ 80% | ≥ 80% | ≥ 80% |  |  |  |  | 
2 | CO/C=C(\Oc1cc(-n2ccc(Cl)n2)ccc1Br)C(=O)OC [Compound E-85, methyl (Z)-2-[2-bromo-5-(3-chloropyrazol-1-yl)phenoxy]-3-methoxy-prop-2-enoate] |  |  | ≥ 80% | ≥ 80% | ≥ 80% | ≥ 80% | ≥ 80% | ≥ 80% | ≥ 80% | ≥ 80% | ≥ 80% | ≥ 80% | ≥ 80% | ≥ 50% |  | 
3 | CO/C=C(\Oc1cc(-n2ccc(C)n2)c(F)cc1C)C(=O)OC [Compound E-64, methyl (Z)-2-[4-fluoro-2-methyl-5-(3-methylpyrazol-1-yl)phenoxy]-3-methoxy-prop-2-enoate] |  |  | ≥ 80% | ≥ 80% | ≥ 80% |  | ≥ 80% | ≥ 80% | ≥ 80% | ≥ 80% | ≥ 80% | ≥ 80% |  | ≥ 50% | 134 to 138 °C | ≥ 80%
4 | CO/C=C(\Oc1cc(-n2ccc(C(C)C)n2)c(Cl)cc1C)C(=O)OC [Compound E-29, methyl (Z)-2-[4-chloro-5-(3-isopropylpyrazol-1-yl)-2-methyl-phenoxy]-3-methoxy-prop-2-enoate] | ≥ 80% |  | ≥ 80% | ≥ 80% | ≥ 80% | ≥ 80% | ≥ 80% | ≥ 80% | ≥ 80% | ≥ 80% | ≥ 80% | ≥ 80% | ≥ 80% |  | 96 to 98 °C | ≥ 80%
5 | CO/C=C(\Oc1cc(-n2ccc(C)n2)c(C)cc1C)C(=O)OC [Compound E-17, methyl (Z)-2-[2,4-dimethyl-5-(3-methylpyrazol-1-yl)phenoxy]-3-methoxy-prop-2-enoate] |  |  | ≥ 80% |  |  |  |  | ≥ 80% | ≥ 80% | ≥ 80% | ≥ 80% |  | ≥ 80% |  | 123 to 124 °C | ≥ 80%
6 | CO/C=C(\Oc1cc(-n2cc(C)c(C3CCCCC3)n2)ccc1C)C(=O)OC [Compound E-113, methyl (Z)-2-[5-(3-cyclohexyl-4-methyl-pyrazol-1-yl)-2-methyl-phenoxy]-3-methoxy-prop-2-enoate] | ≥ 80% |  | ≥ 80% | ≥ 80% | ≥ 80% | ≥ 80% | ≥ 80% | ≥ 80% | ≥ 80% |  | ≥ 80% |  | ≥ 80% |  | 145 to 148 °C | 
7 | CO/C=C(\Oc1cccc(-n2ccc(C(F)(F)F)n2)c1)C(=O)OC [Compound E-15, methyl (Z)-3-methoxy-2-[3-[3-(trifluoromethyl)pyrazol-1-yl]phenoxy]prop-2-enoate] |  |  | ≥ 80% |  | ≥ 80% |  |  | ≥ 80% | ≥ 80% | ≥ 80% | ≥ 80% |  | ≥ 80% |  |  | ≥ 80%
8 | CO/C=C(\Oc1cc(-n2ccc(C(F)(F)F)n2)c(Cl)cc1C)C(=O)OC [Compound E-27, methyl (Z)-2-[4-chloro-2-methyl-5-[3-(trifluoromethyl)pyrazol-1-yl]phenoxy]-3-methoxy-prop-2-enoate] |  |  | ≥ 80% | ≥ 80% | ≥ 80% |  | ≥ 80% | ≥ 80% | ≥ 80% | ≥ 80% | ≥ 80% |  | ≥ 80% | ≥ 50% |  | ≥ 80%
9 | CO/C=C(\Oc1cc(-n2ccc(C3CC3)n2)ccc1Cl)C(=O)OC [Compound E-99, methyl (Z)-2-[2-chloro-5-(3-cyclopropylpyrazol-1-yl)phenoxy]-3-methoxy-prop-2-enoate] | ≥ 80% |  | ≥ 80% | ≥ 80% | ≥ 80% | ≥ 80% | ≥ 80% | ≥ 80% | ≥ 80% | ≥ 80% | ≥ 80% | ≥ 80% | ≥ 80% | ≥ 50% |  | ≥ 80%
10 | CO/C=C(\Oc1cc(-n2ccc(C(F)(F)F)n2)c(C)cc1C)C(=O)OC [Compound E-16, methyl (Z)-2-[2,4-dimethyl-5-[3-(trifluoromethyl)pyrazol-1-yl]phenoxy]-3-methoxy-prop-2-enoate] |  |  | ≥ 80% |  | ≥ 80% |  |  | ≥ 80% | ≥ 80% | ≥ 80% | ≥ 80% | ≥ 80% | ≥ 80% |  | 96 to 98 °C | ≥ 80%
11 | CO/C=C(\Oc1cc(-n2cc(C(F)(F)F)cn2)ccc1C)C(=O)OC [Compound E-81, methyl (Z)-3-methoxy-2-[2-methyl-5-[4-(trifluoromethyl)pyrazol-1-yl]phenoxy]prop-2-enoate] | ≥ 80% | ≥ 80% | ≥ 80% | ≥ 80% | ≥ 80% | ≥ 80% | ≥ 80% | ≥ 80% |  | ≥ 80% | ≥ 80% | ≥ 80% | ≥ 80% | ≥ 50% | 102 to 105 °C | 

Reference: US12043600B2, “Microbiocidal compounds” (SYNGENTA CROP PROTECTION AG, priority 2018, dated 2024)
